Earlier results in paper PMC7455853 (European Journal of Medicinal Chemistry, 2020).
pIC50: −log10 of the molar value. Where a name gives a salt, the structure may show the parent alone.

Key:
[1] = test system: tubulin (colchicine binding); settings: at 5 μM
HIF-1 = settings: read-out: HIF-1 inhibitory activity IC50; HeLa cells
NF–Y binding to the ICB2 = settings: EMSA

In the case of `Brc1cccc(Nc2ncnc3[nH]ccc23)c1` [compound 8], the pIC50 (AURKA) is given as 5.70 and the pIC50 (EGFR) is given as 8.42.
In the case of `COc1ccc(/C=C\c2cc(OC)c(OC)c(OC)c2)cc1O` [CA-4, combretastatin A-4], the “inhibition of colchicine binding” value [1] is given as 98%.
For `COc1ccc2cc3[n+](cc2c1OC)CCc1cc2c(cc1-3)OCO2` [berberine hydrochloride], the pIC50 (SrtA) is listed as 3.92.
For `O=C(Cc1ccc(O)cc1)n1cc(-c2ccc(O)cc2)c(-c2ccc(O)cc2)c1` [neolamellarin A], the pIC50 (HIF-1) is given as 4.97.
In the case of `COc1ccc(-c2nc3ccc(C(=O)Nc4cn(C)c(C(=O)Nc5cc(C(=O)NCCCN(C)C)n(CCCN)c5)n4)cc3[nH]2)cc1` [compound 19a], the “doses giving dose-dependent inhibition of NF–Y binding to the ICB2” value (NF–Y binding to the ICB2) is given as ≥ 3 µM and the DNA binding affinity (ICB2 site) is given as 0.5 µM.
